How the values were obtained:
RR-SRC peptide substrate = settings: cited from earlier work
9L glioma = assay: SC xenograft in mice; assay type: in vivo, rat; settings: nu/nu, 20 mg/kg/day, day 20
Experimental: (§1) Cell lines were grown in appropriate medium (see Appendix 1). Cells were harvested at or near confluency with 0.05% Trypsin-EDTA and pelleted at 450×g for 10 min. Pellets were resuspended in sterile PBS or media (without FBS) to a particular concentration and the cells were implanted into the hindflank of mice. Tumor growth was measured over 3 to 6 weeks using venier calipers. Tumor volumes were calculated as a product of length×width×height unless otherwise indicated. P values were calculated using the Students' t-test.

C6 cells = assay: PDGF-stimulated DNA synthesis, C6 cells (3H-thymidine); assay type: cell-based, rat; settings: 50 ng/ml PDGF-BB
A549 lung tumor = assay: SC xenograft in mice; assay type: in vivo, human
Experimental: as §1

PA-1 ovarian tumor = assay: SC xenograft in mice; assay type: in vivo, human; settings: nu/nu, 20 mg/kg/day, day 36
Experimental: as §1

MCF7 mammary tumor = assay: SC xenograft in mice; assay type: in vivo, human
Experimental: as §1

SF763T glioma = assay: SC xenograft in mice; assay type: in vivo, human
Experimental: as §1

Calu-6 lung tumor = assay: SC xenograft in mice; assay type: in vivo, human; settings: nu/nu, 20 mg/kg/day, day 28
Experimental: as §1

U118T glioma = assay: SC xenograft in mice; assay type: in vivo, human; settings: nu/nu, 15 mg/kg/day, day 47
Experimental: as §1

[1] = LD50 of A10 in BALB/c mice; settings: mouse, in vivo, ip
Experimental: All animals wee observed for 7 to 14 days after the last dose was administered. The LD50 was calculated from a plot of % mortality versus dose (log M) using a four parameter logistic equation.

SF763 = assay: Xenograft in athymic mice; assay type: in vivo; settings: xenografted athymic mice
Experimental: as §1
(§2) PDGF-R expression was measured qualitatively using a western blot.

SF767 = assay: Xenograft in athymic mice; assay type: in vivo; settings: xenografted athymic mice
Experimental: as §1, §2

A375 melanoma = assay: SC xenograft in mice; assay type: in vivo, human
Experimental: as §1
(§3) The mice were treated for three week.

PC-3 prostate tumor = assay: SC xenograft in mice; assay type: in vivo, human; settings: SCID
Experimental: as §1, §3

spleen cells = assay: Normal immune function in rats bearing a primary tumor; assay type: in vivo, rat; design: key to 3H-thymidine uptake: 0: no change; +/-: decrease in some drug-treated animals to levels detected in normal (non-tumor-bearing, non-drug-treated) animals; settings: 8.4 mg/kg/day
Source text: At the indicated times, animals were sacrificed, and the spleens were aseptically removed and placed into sterile medium. Spleens were processed into single cell suspensions by grinding between sterile frosted glass microscope slides. After a single wash to remove tissue debris, the spleen cells were resuspended in a hypotonic ammonium chloride buffer to lyse erythrocytes. Lymphocytes were washed and resuspended to the appropriate concentrations in complete medium, consisting of RPMI plus 10% heat-inactivated FBS, 2 mM glutamine, 50 μM β-mercaptoethanol, and penicillin-streptomycin. The responses of the lymphocytes were examined in the following assays according to accepted procedures (Current Protocols in Immunology. Coligan, J. E., Kruisbeek, A. M., Margulies, D. H., Shevach, E. M., Strober, W. (eds.) John Wiley and Sons, Inc., 1992).
The T-cell mitogen, ConA, and the T-cell independent B-cell mitogen, LPS, were added to 96-well round-bottom wells at the indicated concentrations. Lymphocytes from normal, vehicle-dosed, and drug-dosed animals were added at a final concentration of 2.5×10^5 /well. Cultures were usually set up in triplicate or quadruplicate. The plates were incubated at 37° C. in a humidified atmosphere containing 5% CO2 for the indicated times. Supernatants (approximately 100 μL) were carefully removed from the wells and stored at -80° C. for lymphokine and immunoglobulin analyses. To measure proliferation of the lymphocytes, 1 μCi of ^3 H-thymidine was added to each well, and the plates were incubated for 6 hr. The cultures were harvested onto glass fiber filters, and the incorporated radioactivity was quantitated by liquid scintillation counting (Betaplate, Wallac).
Lymphocytes from normal, vehicle-dosed, and drug-dosed animals were plated at 2.5×10^5 /well in round-bottom 96-well plates. Stimulator cells were then added at the same cell concentration. The stimulator cells consisted of syngeneic or allogeneic lymphocytes which had been treated with 50 μg/mL of mitomycin C for 30 min prior to the assay. The plates were incubated for 3 to 4 days, at which time supernatants were harvested and the cultures were pulsed as described for the mitogen assays.
Supernatants from mitogen and MLR cultures were assayed for IL-2 and IL-6 content by the ability to support the growth of factor-dependent cell lines. HT-2 cells (10^4 /well, IL-2-dependent) and 7TD1 cells (2×10^3 /well, IL-6-dependent) were plated in 96-well flat-bottom plates, in 50 μL/well. Supernatants were added in 50 μL/well, and the plates were incubated overnight (HT-2) or four days (7TD1). Cellular proliferation was determined in the MTT colorimetric assay (Appendix 3.1).
Wistar rats received SC implants of C6 cells on day 0. […] The control group was not treated after tumor implantation. On day 21, the animals were sacrificed and the spleens were removed for in vitro analyses. Splenocytes were stimulated with ConA, LPS, and alloantigen (DA rat spleen cells) as in the murine studies.

Question: Which “tyrosine phosphorylation of the RR-SRC peptide substrate” value (RR-SRC peptide substrate) does the source give for `Cc1oncc1C(=O)Nc1ccc(C(F)(F)F)cc1` [Compound A10, 5-methylisoxazole-4 carboxylic acid-(4-trifluromethyl)-anilide] here?
Answer: dose dependently, inhibited

Question: And the “% Inhibition” value (9L glioma)?
Answer: 83%

Question: And the “PDGF-stimulated DNA synthesis” value (C6 cells)?
Answer: decreased PDGF-stimulated DNA synthesis in both types of cells

Question: What about the “growth of xenograft” value (A549 lung tumor; 12 to 20 mg/kg/day) of the same compound?
Answer: failed to significantly inhibit the growth

Question: And the “% Inhibition” value (A549 lung tumor; SCID, 15 mg/kg/day, day 48, treatment from day 29)?
Answer: 19%

Question: What about the “% Inhibition” value (PA-1 ovarian tumor) of the same compound?
Answer: 53%

Question: And the “growth of xenograft” value (MCF7 mammary tumor; 12 to 20 mg/kg/day)?
Answer: failed to significantly inhibit the growth

Question: And the “% Inhibition” value (MCF7 mammary tumor; SCID, 15 mg/kg/day, day 27, treatment from day 8)?
Answer: 8%

Question: What about the “% Inhibition” value (SF763T glioma; 20 mg/kg) of the same compound?
Answer: 89%

Question: What about the “% Inhibition” value (SF763T glioma; nu/nu, 20 mg/kg/day, day 22) of the same compound?
Answer: 85%

Question: And the “In Vivo inhibition” value (SF763T glioma; xenografted athymic mice)?
Answer: 89%

Question: And the “% Inhibition” value (Calu-6 lung tumor)?
Answer: 64%

Question: And the “% Inhibition” value (U118T glioma)?
Answer: 57%

Question: What about the LD50 [1] of the same compound?
Answer: 94 mg/kg

Question: What about the “In Vivo inhibition” value (SF763) of the same compound?
Answer: 35%

Question: What about the “In Vivo inhibition” value (SF767) of the same compound?
Answer: 18%

Question: And the tumor growth inhibition (A375 melanoma; 15 mg/kg/day, five days per week, from day 9, after three weeks)?
Answer: about 40%

Question: And the “% Inhibition” value (A375 melanoma; SCID, 15 mg/kg/day, day 31, treatment from day 9)?
Answer: 35%

Question: And the “% Inhibition” value (A375 melanoma; nu/nu, 20 mg/kg/day, day 31)?
Answer: 53%

Question: And the tumor growth inhibition (PC-3 prostate tumor; 12 mg/kg/day (PBTE:D5W), five days per week, from day 15, after three weeks)?
Answer: about 50%

Question: What about the “% Inhibition” value (PC-3 prostate tumor; 12 mg/kg/day, day 36, treatment from day 15) of the same compound?
Answer: 47%

Question: What about the “syngeneic MLR proliferative response” value (spleen cells) of the same compound?
Answer: reduced in one of four A10-treated tumor-bearing animals

Question: And the 3H-thymidine uptake (spleen cells; Allo)?
Answer: 0

Question: What about the IL-2 production (spleen cells; Allo) of the same compound?
Answer: 0

Question: What about the IL-6 production (spleen cells; Allo) of the same compound?
Answer: 0

Question: What about the 3H-thymidine uptake (spleen cells; ConA) of the same compound?
Answer: 0

Question: What about the IL-2 production (spleen cells; ConA) of the same compound?
Answer: 0

Question: And the IL-6 production (spleen cells; ConA)?
Answer: 0

Question: What about the 3H-thymidine uptake (spleen cells; LPS) of the same compound?
Answer: 0

Question: What about the IL-2 production (spleen cells; LPS) of the same compound?
Answer: 0

Question: What about the IL-6 production (spleen cells; LPS) of the same compound?
Answer: 0

Question: What about the 3H-thymidine uptake (spleen cells; Syn) of the same compound?
Answer: +/-

Question: And the IL-2 production (spleen cells; Syn)?
Answer: 0

Question: And the IL-6 production (spleen cells; Syn)?
Answer: 0

Question: What about the 3H-thymidine uptake (spleen cells; Tumor stimulus) of the same compound?
Answer: 0

Question: What about the IL-2 production (spleen cells; Tumor stimulus) of the same compound?
Answer: 0

Question: And the IL-6 production (spleen cells; Tumor stimulus)?
Answer: 0

Source: patent US6331555A, “Treatment of platelet derived growth factor related disorders such as cancers” (priority 1999, dated 2001)
